biological target: human recombinant LRRK2 protein (Homo sapiens (Human), UniProt Q5S007); test: LRRK2 Kinase Activity Assay (ADP-Glo); assay type: biochemical; conditions: LRRK2 wt; LRRKtide peptide and ATP substrates; 1h-incubation at 37° C.
Procedure: LRRK2 Kinase reactions were carried out in 384-well white polystyrene plates in a final volume of 6 μl using ADP-Glo™ Kinase Assay kit (Promega Corp.). Compound and substrates (LRRKtide peptide and ATP) in assay buffer were first dispensed in wells. Kinase reaction was then started by the addition of human recombinant LRRK2 protein. After 1h-incubation at 37° C., the enzymatic reaction was stopped by the addition of 6 μl of ADP-Glo Reagent-1 and an additional 40-minutes incubation at 23° C. (residual ATP depletion). A final 30-minutes incubation after 12 μL reagent-2 addition (ADP to ATP conversion and luciferin/luciferase reaction) was performed before luminescent signal acquisition (EnVision™ multimode plate reader-PerkinElmer, Inc.). Data from 10 individual concentrations of tested compounds (N=2) were fitted (XLfit™-ID Business Solutions Ltd) to deliver IC50s (compound concentration leading to 50% inhibition of reference enzymatic activity).
The compounds are dissolved to 5 mM in DMSO. When needed, solutions are sonicated in a bath sonicator.
Table 2 provides the IC50 values of the compounds according to the invention, obtained using the above-mentioned kinase assay. Activities are represented as +++, ++ and +, having the following meanings: • +++ means IC50<10 nM • ++ means 10 nM≤IC50<100 nM • + means 100 nM≤IC50<1 μM.

Chain of human recombinant LRRK2 protein (Q5S007 whole entry): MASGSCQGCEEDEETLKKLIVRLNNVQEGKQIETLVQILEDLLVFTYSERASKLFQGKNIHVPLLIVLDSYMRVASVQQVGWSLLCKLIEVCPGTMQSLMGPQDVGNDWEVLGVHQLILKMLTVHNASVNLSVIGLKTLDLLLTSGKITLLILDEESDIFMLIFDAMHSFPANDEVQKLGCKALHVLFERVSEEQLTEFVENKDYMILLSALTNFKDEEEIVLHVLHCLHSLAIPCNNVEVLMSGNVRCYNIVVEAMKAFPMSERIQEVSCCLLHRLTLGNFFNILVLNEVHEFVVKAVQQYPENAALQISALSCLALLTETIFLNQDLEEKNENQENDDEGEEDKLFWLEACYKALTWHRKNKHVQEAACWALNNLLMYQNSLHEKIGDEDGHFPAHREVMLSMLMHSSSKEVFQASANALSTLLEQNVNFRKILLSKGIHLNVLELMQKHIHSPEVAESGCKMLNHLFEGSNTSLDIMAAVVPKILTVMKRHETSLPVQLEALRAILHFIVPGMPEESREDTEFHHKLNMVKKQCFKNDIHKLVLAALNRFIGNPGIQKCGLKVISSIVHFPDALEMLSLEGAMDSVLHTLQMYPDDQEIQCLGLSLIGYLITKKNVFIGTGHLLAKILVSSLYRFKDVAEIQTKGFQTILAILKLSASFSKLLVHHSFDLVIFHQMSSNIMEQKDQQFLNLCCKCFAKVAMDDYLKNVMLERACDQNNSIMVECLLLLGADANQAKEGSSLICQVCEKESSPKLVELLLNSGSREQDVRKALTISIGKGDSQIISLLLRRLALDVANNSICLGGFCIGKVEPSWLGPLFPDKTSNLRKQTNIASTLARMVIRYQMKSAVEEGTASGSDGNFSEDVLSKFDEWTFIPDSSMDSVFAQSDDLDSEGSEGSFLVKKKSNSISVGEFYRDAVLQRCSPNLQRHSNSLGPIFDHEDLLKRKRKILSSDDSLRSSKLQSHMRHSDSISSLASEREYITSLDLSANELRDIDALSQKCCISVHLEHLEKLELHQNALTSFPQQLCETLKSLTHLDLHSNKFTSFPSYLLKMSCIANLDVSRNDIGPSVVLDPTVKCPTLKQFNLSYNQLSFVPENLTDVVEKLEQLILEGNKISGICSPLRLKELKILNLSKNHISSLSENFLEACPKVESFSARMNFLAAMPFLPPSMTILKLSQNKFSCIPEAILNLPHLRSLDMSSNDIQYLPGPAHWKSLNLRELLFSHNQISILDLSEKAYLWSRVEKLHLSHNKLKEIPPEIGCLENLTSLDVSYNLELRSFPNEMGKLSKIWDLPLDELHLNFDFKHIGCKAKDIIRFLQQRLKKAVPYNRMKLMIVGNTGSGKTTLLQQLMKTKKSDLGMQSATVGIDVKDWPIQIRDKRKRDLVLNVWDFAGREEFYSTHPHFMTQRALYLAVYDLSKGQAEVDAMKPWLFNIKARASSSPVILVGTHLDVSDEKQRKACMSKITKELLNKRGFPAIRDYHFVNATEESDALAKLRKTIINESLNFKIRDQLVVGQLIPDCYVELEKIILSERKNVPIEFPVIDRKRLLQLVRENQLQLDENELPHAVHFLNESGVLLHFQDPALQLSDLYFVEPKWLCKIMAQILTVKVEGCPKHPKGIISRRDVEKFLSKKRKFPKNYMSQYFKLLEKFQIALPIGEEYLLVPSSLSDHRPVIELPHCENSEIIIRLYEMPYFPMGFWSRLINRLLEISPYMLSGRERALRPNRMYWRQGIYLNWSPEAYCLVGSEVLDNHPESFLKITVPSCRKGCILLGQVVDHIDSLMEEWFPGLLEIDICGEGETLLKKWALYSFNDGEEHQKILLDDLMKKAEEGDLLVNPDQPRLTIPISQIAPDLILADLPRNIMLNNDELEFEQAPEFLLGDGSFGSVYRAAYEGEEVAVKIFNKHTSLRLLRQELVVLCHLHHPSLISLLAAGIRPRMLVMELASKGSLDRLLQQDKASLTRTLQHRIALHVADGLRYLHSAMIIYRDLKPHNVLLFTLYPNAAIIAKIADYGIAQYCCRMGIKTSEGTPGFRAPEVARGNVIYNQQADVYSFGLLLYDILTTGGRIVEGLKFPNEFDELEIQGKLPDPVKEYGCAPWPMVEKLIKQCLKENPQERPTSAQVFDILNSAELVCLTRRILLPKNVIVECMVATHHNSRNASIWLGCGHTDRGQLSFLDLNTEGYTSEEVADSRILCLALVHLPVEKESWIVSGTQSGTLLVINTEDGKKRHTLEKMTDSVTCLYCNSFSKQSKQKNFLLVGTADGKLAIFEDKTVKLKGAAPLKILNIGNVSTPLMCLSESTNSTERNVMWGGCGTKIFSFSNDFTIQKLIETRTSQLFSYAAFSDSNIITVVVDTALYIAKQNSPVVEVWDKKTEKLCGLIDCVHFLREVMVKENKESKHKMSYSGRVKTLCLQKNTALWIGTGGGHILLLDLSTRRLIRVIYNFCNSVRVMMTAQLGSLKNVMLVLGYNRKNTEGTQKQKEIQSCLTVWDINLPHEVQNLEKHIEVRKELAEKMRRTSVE

Compound	IC50 [nM]
O=C1NCCCOc2ccc3[nH]nc(c3c2)-c2cc(cc(C3CC3)c2)CO1 [Example 48, 4-cyclopropyl-8,14-dioxa-10,19,20-triazatetracyclo[13.5.2.1^2,6.0^18,21]tricosa-1(20),2,4,6(23),15,17,21-heptaen-9-one]	< 10
CN1CCN(c2ccc3cc2COC(=O)NCCCOc2ccc4[nH]nc-3c4c2)CC1 [Example 49, 5-(4-methylpiperazin-1-yl)-8,14-dioxa-10,19,20-triazatetracyclo[13.5.2.1^2,6.0^18,21]tricosa-1(20),2,4,6(23),15,17,21-heptaen-9-one]	10 to 100
CC1CCNC(=O)OCc2cccc(c2)-c2n[nH]c3ccc(cc23)O1 (centres unmarked) [Example 50, 13-methyl-8,14-dioxa-10,19,20-triazatetracyclo[13.5.2.1^2,6.0^18,21]tricosa-1(20),2,4,6(23),15,17,21-heptaen-9-one]	< 10
O=C1NCCCOc2ccc3[nH]nc(c3c2)-c2cnn(c2)CCO1 [Example 51, 8,14-dioxa-4,5,10,19,20-pentaazatetracyclo[13.5.2.1^2,5.0^18,21]tricosa-1(20),2(23),3,15(22),16,18(21)-hexaen-9-one]	< 10
CN(c1cc2cc(c1)-c1n[nH]c3ccc(cc13)OCCCNC(=O)OC2)C1COC1 [Example 52, 4-[methyl(oxetan-3-yl)amino]-8,14-dioxa-10,19,20-triazatetracyclo[13.5.2.1^2,6.0^18,21]tricosa-1(20),2,4,6(23),15,17,21-heptaen-9-one]	< 10
CN(C)Cc1cc2cc(c1)-c1n[nH]c3ccc(cc13)OCCCNC(=O)OC2 [Example 53, 4-[(dimethylamino)methyl]-8,14-dioxa-10,19,20-triazatetracyclo[13.5.2.1^2,6.0^18,21]tricosa-1(20),2,4,6(23),15,17,21-heptaen-9-one]	10 to 100
Cc1cc2cc(c1)-c1n[nH]c3ccc(cc13)OCCCN(C)C(=O)OC2 [Example 54, 4,10-dimethyl-8,14-dioxa-10,19,20-triazatetracyclo[13.5.2.1^2,6.0^18,21]tricosa-1(20),2,4,6(23),15,17,21-heptaen-9-one]	< 10
CC(C)Oc1cc2cc(c1)-c1n[nH]c3ccc(cc13)OCCCNC(=O)OC2 [Example 55, 4-(propan-2-yloxy)-8,14-dioxa-10,19,20-triazatetracyclo[13.5.2.1^2,6.0^18,21]tricosa-1(20),2,4,6(23),15,17,21-heptaen-9-one]	< 10
CC1OC(=O)NCCCOc2ccc3[nH]nc(c3c2)-c2cc(F)cc1c2 (centres unmarked) [Example 56, 4-fluoro-7-methyl-8,14-dioxa-10,19,20-triazatetracyclo[13.5.2.1^2,6.0^18,21]tricosa-1(20),2,4,6(23),15,17,21-heptaen-9-one]	< 10
O=C1NCCCOc2ccc3[nH]nc(c3c2)-c2cc(cc(C3=CCN(C4COC4)CC3)c2)CO1 [Example 57, 4-[1-(oxetan-3-yl)-1,2,3,6-tetrahydropyridin-4-yl]-8,14-dioxa-10,19,20-triazatetracyclo[13.5.2.1^2,6.0^18,21]tricosa-1(20),2,4,6(23),15,17,21-heptaen-9-one]	< 10
CC1CCCN(c2cc3cc(c2)-c2n[nH]c4ccc(cc24)OCCCNC(=O)OC3)C1 (centres unmarked) [Example 58, 4-(3-methylpiperidin-1-yl)-8,14-dioxa-10,19,20-triazatetracyclo[13.5.2.1^2,6.0^18,21]tricosa-1(20),2,4,6(23),15,17,21-heptaen-9-one]	< 10
O=C1NCCCOc2ccc3[nH]nc(c3c2)-c2cc(cc(N3CC[C@H](O)C3)c2)CO1 [Example 59, 4-[(3S)-3-hydroxypyrrolidin-1-yl]-8,14-dioxa-10,19,20-triazatetracyclo[13.5.2.1^2,6.0^18,21]tricosa-1(20),2,4,6(23),15,17,21-heptaen-9-one]	< 10
O=C1OC2CN1CCCOc1ccc3[nH]nc(c3c1)-c1cc(F)cc2c1 (centres unmarked) [Example 60, 4-fluoro-8,14-dioxa-10,19,20-triazapentacyclo[13.5.2.1^2,6.1^7,10.0^18,21]tetracosa-1(20),2(24),3,5,15(22),16,18(21)-heptaen-9-one]	< 10
O=C1NCCCOc2ccc3[nH]nc(c3c2)-c2cc(cc(C3CCOC3)c2)CO1 (centres unmarked) [Example 61, 4-(oxolan-3-yl)-8,14-dioxa-10,19,20-triazatetracyclo[13.5.2.1^2,6.0^18,21]tricosa-1(20),2,4,6(23),15,17,21-heptaen-9-one]	< 10
C[C@H]1CCNC(=O)OCc2cccc(c2)-c2n[nH]c3ccc(cc23)O1 [Example 62, (13S)-13-methyl-8,14-dioxa-10,19,20-triazatetracyclo[13.5.2.1^2,6.0^18,21]tricosa-1(20),2(23),3,5,15(22),16,18(21)-heptaen-9-one]	< 10
C[C@@H]1CCNC(=O)OCc2cccc(c2)-c2n[nH]c3ccc(cc23)O1 [Example 63, (13R)-13-methyl-8,14-dioxa-10,19,20-triazatetracyclo[13.5.2.1^2,6.0^18,21]tricosa-1(20),2(23),3,5,15(22),16,18(21)-heptaen-9-one]	< 10
Cn1ccc(-c2cc3cc(c2)-c2n[nH]c4ccc(cc24)OCCCNC(=O)OC3)n1 [Example 64, 4-(1-methyl-1H-pyrazol-3-yl)-8,14-dioxa-10,19,20-triazatetracyclo[13.5.2.1^2,6.0^18,21]tricosa-1(20),2(23),3,5,15(22),16,18(21)-heptaen-9-one]	< 10
C[C@@H]1OC(=O)NCCCOc2ccc3[nH]nc(c3c2)-c2cccc1c2 [Example 65, (7S)-7-methyl-8,14-dioxa-10,19,20-triazatetracyclo[13.5.2.1^2,6.0^18,21]tricosa-1(20),2(23),3,5,15(22),16,18(21)-heptaen-9-one]	10 to 100
O=C1NCCCOc2ccc3[nH]nc(c3c2)-c2cc(cc(OCCN3CCOCC3)c2)CO1 [Example 66, 4-[2-(morpholin-4-yl)ethoxy]-8,14-dioxa-10,19,20-triazatetracyclo[13.5.2.1^2,6.0^18,21]tricosa-1(20),2(23),3,5,15(22),16,18(21)-heptaen-9-one]	< 10
COCCc1cc2cc(c1)-c1n[nH]c3ccc(cc13)OCCCNC(=O)OC2 [Example 67, 4-(2-methoxyethyl)-8,14-dioxa-10,19,20-triazatetracyclo[13.5.2.1^2,6.0^18,21]tricosa-1(20),2(23),3,5,15(22),16,18(21)-heptaen-9-one]	< 10
C[C@H]1OC(=O)NCCCOc2ccc3[nH]nc(c3c2)-c2cccc1c2 [Example 68, (7R)-7-methyl-8,14-dioxa-10,19,20-triazatetracyclo[13.5.2.1^2,6.0^18,21]tricosa-1(20),2(23),3,5,15(22),16,18(21)-heptaen-9-one]	< 10
O=C1NCCCOc2ccc3[nH]nc(c3c2)-c2ccc(C3CC3)c(c2)CO1 [Example 69, 5-cyclopropyl-8,14-dioxa-10,19,20-triazatetracyclo[13.5.2.1^2,6.0^18,21]tricosa-1(20),2,4,6(23),15,17,21-heptaen-9-one]	< 10
COCCOc1cc2cc(c1)-c1n[nH]c3ccc(cc13)OCCCNC(=O)OC2 [Example 70, 4-(2-methoxyethoxy)-8,14-dioxa-10,19,20-triazatetracyclo[13.5.2.1^2,6.0^18,21]tricosa-1(20),2,4,6(23),15,17,21-heptaen-9-one]	< 10
CC1CCNC(=O)OCc2cc(F)cc(c2)-c2n[nH]c3ccc(cc23)O1 (centres unmarked) [Example 71, 4-fluoro-13-methyl-8,14-dioxa-10,19,20-triazatetracyclo[13.5.2.1^2,6.0^18,21]tricosa-1(20),2,4,6(23),15,17,21-heptaen-9-one]	< 10
CC1CCOc2ccc3[nH]nc(c3c2)-c2cccc(c2)COC(=O)N1 (centres unmarked) [Example 72, 11-methyl-8,14-dioxa-10,19,20-triazatetracyclo[13.5.2.1^2,6.0^18,21]tricosa-1(20),2,4,6(23),15,17,21-heptaen-9-one]	< 10
O=C1NCCCOc2ccc3[nH]nc(c3c2)-c2cc(cc(N3CCOCC3=O)c2)CO1 [Example 73, 4-(3-oxomorpholin-4-yl)-8,14-dioxa-10,19,20-triazatetracyclo[13.5.2. 1^2,6.0^18,21]tricosa-1(20),2(23),3,5,15(22),16,18(21)-heptaen-9-one]	< 10
O=C1NCCCOc2ccc3[nH]nc(c3c2)-c2cc(cc(N3CCCC3=O)c2)CO1 [Example 74, 4-(2-oxopyrrolidin-1-yl)-8,14-dioxa-10,19,20-triazatetracyclo[13.5.2. 1^2,6.0^18,21]tricosa-1(20),2(23),3,5,15(22),16,18(21)-heptaen-9-one]	< 10
O=C1NCCCOc2ccc3[nH]nc(c3c2)-c2ccc(N3CCCC3=O)c(c2)CO1 [Example 75, 5-(2-oxopyrrolidin-1-yl)-8,14-dioxa-10,19,20-triazatetracyclo[13.5.2. 1^2,6.0^18,21]tricosa-1(20),2(23),3,5,15(22),16,18(21)-heptaen-9-one]	< 10
CC1CCCN1c1cc2cc(c1)-c1n[nH]c3ccc(cc13)OCCCNC(=O)OC2 (centres unmarked) [Example 76, 4-(2-methylpyrrolidin-1-yl)-8,14-dioxa-10,19,20-triazatetracyclo[13.5.2.1^2,6.0^18,21]tricosa-1(20),2(23),3,5,15(22),16,18(21)-heptaen-9-one]	< 10
